Activity calls are given as the source filed them.
What was measured:
Nonstructural protein 1 = Nonstructural protein 1 (Influenza A virus, UniProt Q194T2); format: functional, Influenza A virus (A/California/07/2009(H1N1))
Caspase-3 = biological target: T1, Caspase-3 (Homo sapiens, UniProt P42574); format: functional;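 note: Dose-response selectivity test against caspase-3 for candidate inhibitors of sentrin-specific proteases (SENPs)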
T1 sequence (P42574 whole entry): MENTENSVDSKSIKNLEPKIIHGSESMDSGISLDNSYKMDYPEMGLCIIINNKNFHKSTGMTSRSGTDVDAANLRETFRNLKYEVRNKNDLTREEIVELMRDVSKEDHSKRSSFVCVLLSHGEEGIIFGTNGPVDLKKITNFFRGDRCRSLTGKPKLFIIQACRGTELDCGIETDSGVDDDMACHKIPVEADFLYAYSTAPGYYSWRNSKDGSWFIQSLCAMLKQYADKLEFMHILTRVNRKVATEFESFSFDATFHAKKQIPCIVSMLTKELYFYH

[1] = biological target: T2, Sentrin-specific protease 7 (Homo sapiens, UniProt Q9BQF6); format: functional;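 note: Luminescence-based dose-response confirmation of ultra-high-throughput screening hits, measuring inhibition of SENP7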
T2 sequence (Q9BQF6 whole entry): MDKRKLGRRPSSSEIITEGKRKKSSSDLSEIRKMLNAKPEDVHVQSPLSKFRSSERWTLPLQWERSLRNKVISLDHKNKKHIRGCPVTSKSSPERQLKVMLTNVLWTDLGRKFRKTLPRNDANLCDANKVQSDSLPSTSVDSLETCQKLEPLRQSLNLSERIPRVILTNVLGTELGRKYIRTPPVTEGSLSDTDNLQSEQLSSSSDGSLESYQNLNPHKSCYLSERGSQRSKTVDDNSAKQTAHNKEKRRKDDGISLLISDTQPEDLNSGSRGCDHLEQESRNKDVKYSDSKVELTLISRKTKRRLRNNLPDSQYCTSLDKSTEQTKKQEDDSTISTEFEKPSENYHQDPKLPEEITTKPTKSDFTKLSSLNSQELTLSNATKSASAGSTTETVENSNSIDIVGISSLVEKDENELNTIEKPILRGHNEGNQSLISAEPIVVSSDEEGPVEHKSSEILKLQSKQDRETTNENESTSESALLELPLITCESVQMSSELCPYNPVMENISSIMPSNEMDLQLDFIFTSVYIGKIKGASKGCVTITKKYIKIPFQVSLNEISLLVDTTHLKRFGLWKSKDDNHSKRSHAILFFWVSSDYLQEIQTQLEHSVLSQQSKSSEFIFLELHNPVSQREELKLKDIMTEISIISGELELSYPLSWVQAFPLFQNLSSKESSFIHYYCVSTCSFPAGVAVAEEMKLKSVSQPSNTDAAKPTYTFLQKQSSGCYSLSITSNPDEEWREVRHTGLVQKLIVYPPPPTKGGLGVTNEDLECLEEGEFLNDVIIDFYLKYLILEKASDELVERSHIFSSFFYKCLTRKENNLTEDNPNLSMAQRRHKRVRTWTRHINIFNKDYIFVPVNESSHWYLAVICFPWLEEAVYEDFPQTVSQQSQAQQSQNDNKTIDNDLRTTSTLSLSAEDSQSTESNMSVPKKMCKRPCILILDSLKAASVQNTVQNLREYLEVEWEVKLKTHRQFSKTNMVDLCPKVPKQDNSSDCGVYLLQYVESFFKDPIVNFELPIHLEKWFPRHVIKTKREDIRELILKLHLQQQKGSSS

[2] = biological target: T3, Sentrin-specific protease 8 (Homo sapiens, UniProt Q96LD8); format: functional;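 note: luminescence read-out of SENP8 inhibition, dose-response confirmation following an ultra-high-throughput screen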
T3 sequence (Q96LD8 whole entry): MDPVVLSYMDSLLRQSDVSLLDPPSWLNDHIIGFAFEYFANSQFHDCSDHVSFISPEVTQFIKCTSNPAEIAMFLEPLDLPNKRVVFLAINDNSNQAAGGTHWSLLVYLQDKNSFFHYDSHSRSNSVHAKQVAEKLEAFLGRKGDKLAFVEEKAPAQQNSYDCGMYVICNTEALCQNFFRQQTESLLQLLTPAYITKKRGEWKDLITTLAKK

[3] = biological target: T4, Sentrin-specific protease 6 (Homo sapiens, UniProt Q9GZR1); format: functional;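 note: Luminescence-based dose-response confirmatory assay of SENP6 inhibition, following up an ultra-high-throughput screen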
T4 sequence (Q9GZR1 whole entry): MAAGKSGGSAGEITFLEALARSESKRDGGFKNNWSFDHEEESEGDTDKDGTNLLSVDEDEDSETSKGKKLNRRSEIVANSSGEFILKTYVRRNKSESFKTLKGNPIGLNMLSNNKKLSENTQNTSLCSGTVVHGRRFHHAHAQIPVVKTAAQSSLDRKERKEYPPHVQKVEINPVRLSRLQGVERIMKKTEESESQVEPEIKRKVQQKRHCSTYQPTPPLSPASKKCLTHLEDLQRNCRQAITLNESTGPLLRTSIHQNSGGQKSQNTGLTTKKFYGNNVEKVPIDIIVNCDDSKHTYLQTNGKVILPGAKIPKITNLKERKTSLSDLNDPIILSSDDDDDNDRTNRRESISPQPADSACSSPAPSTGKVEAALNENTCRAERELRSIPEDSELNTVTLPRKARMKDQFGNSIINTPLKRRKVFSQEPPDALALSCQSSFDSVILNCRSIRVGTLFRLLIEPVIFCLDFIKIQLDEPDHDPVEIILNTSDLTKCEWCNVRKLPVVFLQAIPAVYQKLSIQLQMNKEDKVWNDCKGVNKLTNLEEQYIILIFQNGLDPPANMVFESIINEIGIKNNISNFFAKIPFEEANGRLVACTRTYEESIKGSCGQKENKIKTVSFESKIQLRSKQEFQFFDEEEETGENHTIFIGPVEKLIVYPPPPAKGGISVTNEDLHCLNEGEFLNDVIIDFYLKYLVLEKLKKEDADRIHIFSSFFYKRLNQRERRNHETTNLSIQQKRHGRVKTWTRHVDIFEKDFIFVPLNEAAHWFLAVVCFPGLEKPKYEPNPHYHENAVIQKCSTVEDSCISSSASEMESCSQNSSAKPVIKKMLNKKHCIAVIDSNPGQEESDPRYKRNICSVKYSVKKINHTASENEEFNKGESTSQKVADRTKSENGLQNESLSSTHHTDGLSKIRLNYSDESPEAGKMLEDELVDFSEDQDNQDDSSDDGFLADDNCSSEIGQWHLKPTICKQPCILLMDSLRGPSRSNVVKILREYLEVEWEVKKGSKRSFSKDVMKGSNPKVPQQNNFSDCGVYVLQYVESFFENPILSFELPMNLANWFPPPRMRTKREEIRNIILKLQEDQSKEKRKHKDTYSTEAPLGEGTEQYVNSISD

H9c2 = assay: cells; format: functional, cell-based; conditions: Rattus norvegicus, H9c2, Myocardium;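 note: confirmatory concentration-response retest of ultra-high-throughput screening hits for modulation of myocardial damage; cell death induced by hydrogen peroxide oxidative stress; compound pretreatment for 60 min then peroxide exposure for 2 h; potency is for protecting the cells against peroxide damage rather than for killing them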
Protein skinhead-1 = biological target: T5, Protein skinhead-1 (Caenorhabditis elegans, UniProt P34707); format: functional
T5 sequence (P34707 whole entry): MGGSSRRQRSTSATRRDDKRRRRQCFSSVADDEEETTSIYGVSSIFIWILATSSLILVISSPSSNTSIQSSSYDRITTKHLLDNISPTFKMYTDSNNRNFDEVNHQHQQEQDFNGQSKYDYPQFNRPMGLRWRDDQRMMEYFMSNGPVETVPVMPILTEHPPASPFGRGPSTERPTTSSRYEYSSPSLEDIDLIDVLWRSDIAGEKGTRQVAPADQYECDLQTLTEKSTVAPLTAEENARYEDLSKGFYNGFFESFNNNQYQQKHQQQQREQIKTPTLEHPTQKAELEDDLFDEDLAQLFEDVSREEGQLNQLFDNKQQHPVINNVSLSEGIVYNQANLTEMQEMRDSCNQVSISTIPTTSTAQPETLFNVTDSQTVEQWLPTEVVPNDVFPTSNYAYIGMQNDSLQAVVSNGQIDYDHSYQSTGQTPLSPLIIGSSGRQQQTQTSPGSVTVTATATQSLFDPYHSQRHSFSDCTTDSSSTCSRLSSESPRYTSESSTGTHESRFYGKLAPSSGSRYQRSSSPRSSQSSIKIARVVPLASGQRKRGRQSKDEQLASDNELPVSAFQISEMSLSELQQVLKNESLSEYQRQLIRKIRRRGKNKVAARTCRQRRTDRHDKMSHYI

[4] = biological target: T6, Corticotropin-releasing factor receptor 2/Corticotropin-releasing factor-binding protein (Homo sapiens, UniProt P24387+Q13324); assay: activators of CRF receptor 2 with binding protein – uHTS hits, confirmation (AID 602473); format: functional; conditions: read-out: EC50_Mean
T6 sequence (Q13324 whole entry): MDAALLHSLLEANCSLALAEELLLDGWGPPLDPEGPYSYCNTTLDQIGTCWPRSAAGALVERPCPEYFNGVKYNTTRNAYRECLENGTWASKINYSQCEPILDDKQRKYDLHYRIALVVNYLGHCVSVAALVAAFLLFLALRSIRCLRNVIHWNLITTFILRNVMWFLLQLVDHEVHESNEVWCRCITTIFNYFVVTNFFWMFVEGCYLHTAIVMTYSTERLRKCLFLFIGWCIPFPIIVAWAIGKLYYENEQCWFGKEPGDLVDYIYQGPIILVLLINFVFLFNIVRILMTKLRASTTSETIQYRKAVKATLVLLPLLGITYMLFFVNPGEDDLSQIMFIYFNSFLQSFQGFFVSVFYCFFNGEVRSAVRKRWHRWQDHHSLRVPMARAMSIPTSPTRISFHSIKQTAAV
T6 sequence (P24387 whole entry): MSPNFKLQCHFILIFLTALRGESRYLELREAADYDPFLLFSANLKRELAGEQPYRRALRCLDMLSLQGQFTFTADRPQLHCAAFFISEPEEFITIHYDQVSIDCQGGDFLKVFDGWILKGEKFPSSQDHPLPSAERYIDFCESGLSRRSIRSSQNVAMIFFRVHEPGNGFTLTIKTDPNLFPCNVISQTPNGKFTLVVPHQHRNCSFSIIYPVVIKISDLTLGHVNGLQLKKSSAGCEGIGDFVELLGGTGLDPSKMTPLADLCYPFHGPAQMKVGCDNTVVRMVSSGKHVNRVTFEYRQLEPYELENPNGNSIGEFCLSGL

[5] = biological target: T6, Corticotropin-releasing factor receptor 2/Corticotropin-releasing factor-binding protein; assay: Dose Response confirmation of uHTS hits for small molecule antagonists of the CRF-binding protein and CRF-R2 receptor complex.; format: functional; conditions: read-out: IC50_Mean
[6] = HEK-293T cell viability reduction – luminescence, B-cell screen hits, cytotoxicity control for BCR NF-kB inhibitor project, dose response (AID 489021); format: functional, cell-based;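 note: HEK-293T cells carrying an NF-kB luciferase reporter; cells exposed to compound for about 14 hours before viability readout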
[7] = luciferase reporter signal suppression in cells – H4 neuroglioma cells, luminescence, dose response (AID 1990); format: functional, cell-based
[8] = microbe, parasite or virus in culture; format: functional; conditions: Mycobacterium tuberculosis
[9] = NIH3T3 cell viability loss – ATP luminescence, mouse fibroblasts, counter-screen, dose response (AID 2010); format: functional, cell-based;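 note: cells exposed to compound for about 90 hours before reading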
[10] = Luminescence Cell-Based Dose Response HTS to Identify Inhibitors of 5'UTR Stem-Loop Driven Prion Protein mRNA Translation in H4 Neuroglioblastoma Cells. [Related pubchem assays: 1827 (Project Summary), 1813 (Primary HTS)]; format: functional
Streptococcus = assay: GAS UMAA2166 growth inhibition – luminescence, BacTiterGlo, counter-screen for streptokinase expression inhibitor project, dose response (AID 1915); format: functional, organism-based;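 note: potency for reduction of bacterial viability or growth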
[11] = Trypanosoma cruzi growth suppression in host cells – NIH3T3 host cells, beta-gal luminescence, confirmation (AID 2044); format: functional, cell-based;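 note: intracellular parasites grown in NIH/3T3 mouse fibroblasts as host cells; luminescent beta-galactosidase reporter signal from transgenic T. cruzi replicating inside host cells; inhibitors lower the luminescence signal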
[12] = alpha-synuclein stem-loop luciferase translation blockers – H4 neuroglioma cells, luminescence, confirmation (AID 1988); format: functional, cell-based
[13] = system: Streptococcus sp. 'group A'; assay: Streptococcus pyogenes SK(-)GAS viability under kanamycin – luminescence, BacTiterGlo, confirmation, counter-screen for streptokinase expression inhibitor project, dose response (AID 1900); format: functional, organism-based
INS1 = assay: INS-1E survival protection against cytokine death – cell-based, luminescence, retest, dose response (AID 449756); format: functional; conditions: Rattus norvegicus;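 note: cell death triggered by IL-1 beta plus TNF-alpha plus IFN-gamma mixture; protective hits raise ATP signal compared with cytokine alone wells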

Sequence of Nonstructural protein 1 (Q194T2 whole entry): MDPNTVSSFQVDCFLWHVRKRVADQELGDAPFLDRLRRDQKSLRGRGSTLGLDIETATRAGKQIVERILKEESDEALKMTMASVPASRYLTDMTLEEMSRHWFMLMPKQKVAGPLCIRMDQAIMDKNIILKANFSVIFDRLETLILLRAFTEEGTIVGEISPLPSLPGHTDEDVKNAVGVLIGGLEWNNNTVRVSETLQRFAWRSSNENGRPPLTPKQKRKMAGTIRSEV

O=C(O)c1cc2c3ccccc3nc-2c[nH]1
IC50 (Nonstructural protein 1): 5.27 µM (active)

COc1ccc(Nc2ccc(S(=O)(=O)N3CCCCC3)cc2[N+](=O)[O-])cc1OC
IC50 (Nonstructural protein 1): 28.8 µM (active)

COc1ccc2nc(Nc3nc4cc5c(cc4s3)OCCO5)sc2c1
IC50 (Caspase-3): 37 µM (active)
IC50 [1]: 5.81 µM (active)
IC50 [2]: > 100 µM (inactive)
IC50 [3]: 66.6 µM (active)

COc1cccc(N=Nc2ccc3ccccc3c2O)c1
IC50 (Nonstructural protein 1): 5.22 µM (active)

CN(C)c1ccc([C@@H]2[C@@H]([N+](=O)[O-])[C@H]3C=Cc4ccccc4N3[C@H]2C(=O)c2ccc(Cl)cc2)cc1
IC50 (Nonstructural protein 1): 26.5 µM (active)

COC(=O)c1cc2c(-c3ccccc3)cc3ccccn3c-2c1C(=O)OC
IC50 (Nonstructural protein 1): 19.2 µM (active)
IC50 (H9c2): > 79 µM (inactive)

Cc1ccc2oc(-c3ccco3)nc2c1
IC50 (Caspase-3): 6.87 µM (active)
IC50 [1]: 5.87 µM (active)
IC50 [2]: > 100 µM (inactive)
IC50 [3]: 21.3 µM (active)

Brc1ccc(-c2cnc(-c3cccs3)o2)cc1
IC50 (Caspase-3): 29.5 µM (active)
IC50 [1]: 5.42 µM (active)
IC50 [2]: 27.6 µM (active)
IC50 [3]: 15 µM (active)
IC50 (Protein skinhead-1): 19.7 µM (active)

O=C(c1cc2nc(-c3ccccc3)cc(-c3ccccc3)n2n1)N1CCN(C(=O)c2ccco2)CC1
EC50 [4]: > 53 µM (inactive)
IC50 [5]: > 47.1 µM (inactive)
IC50 [6]: 72.3 µM (inactive)
IC50 (H9c2): > 79 µM (inactive)

COc1ccccc1Nc1ncccc1[N+](=O)[O-]
IC50 (Nonstructural protein 1): 29.9 µM (active)

NC(=S)NN=Cc1nccc2ccccc12
IC50 (Nonstructural protein 1): 2.03 µM (active)

Cc1ccc(C2(c3ccc(C)cc3)CC2C(=O)Nc2ccc([N+](=O)[O-])cc2O)cc1 (stereo not given)
EC50 [7]: 10.1 µM (active)
CC50 [8]: 3.29 µM (active)
EC50 [9]: > 60 µM (not active)
EC50 [10]: 13.7 µM (active)
EC50 (Streptococcus): 4.17 µM (active)
IC50 [6]: 33.8 µM (inactive)
EC50 [11]: 3.31 µM (active)
EC50 [12]: 9.29 µM (active)
EC50 [13]: 2.34 µM (active)
AC50 (INS1): 3.61 µM (active)

From ChEMBL document CHEMBL1201862, “PubChem BioAssay data set” (2004)
